Laboratory results taken from US6528491B2, “Pyranoside derivatives” (Boehringer Ingelheim Pharma KG, priority 2000, dated 2003).

Target: LTB4 receptor (Homo sapiens, UniProt Q15722)
Assay: receptor binding test
Description: The activity can be investigated pharmacologically and biochemically using tests as disclosed for example in WO 93/16036, pp. 15 to 17; reference is hereby made to the contents of this publication.

LTB4 receptor, sequence (Q15722 whole entry): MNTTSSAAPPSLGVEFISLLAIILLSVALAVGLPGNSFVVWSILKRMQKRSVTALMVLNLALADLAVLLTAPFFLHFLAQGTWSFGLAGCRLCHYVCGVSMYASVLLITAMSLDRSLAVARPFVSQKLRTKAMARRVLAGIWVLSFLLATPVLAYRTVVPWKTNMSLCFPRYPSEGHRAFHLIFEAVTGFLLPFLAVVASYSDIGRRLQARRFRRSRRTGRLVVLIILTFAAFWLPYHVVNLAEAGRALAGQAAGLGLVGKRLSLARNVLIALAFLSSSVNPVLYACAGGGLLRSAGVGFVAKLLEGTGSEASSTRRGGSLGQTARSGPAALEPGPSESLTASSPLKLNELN

Ki: 3.6 nM
SMILES: CCCc1cc(-c2ccc(C(=N)N)cc2)ccc1OCCOc1cccc(O[C@@H]2O[C@H](C(=O)O)[C@@H](O)[C@H](O)[C@H]2O)c1 [Example 1, 3′-n-propyl-4′-[2-(3-hydroxyphenoxy)-ethoxy]-1,1′-biphenyl-4-carboximidamide-O-β-D-glucuronide]
